Measurements as given in PubChem BioAssay (NCI).
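Briefly, cells in 96-well plates were exposed to five compound concentrations for 48 h, and endpoints were estimated by linear interpolation. At the GI50, growth is halved. TGI is the concentration that stops growth completely.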

How the values were obtained:
Test in all cases: NCI tumour cell line growth inhibition, 48 h
[1] = tested on: 786-0 renal
[2] = tested on: A498 renal
[3] = tested on: A549 NSCLC
[4] = tested on: ACHN renal
[5] = tested on: BT-549 breast
[6] = tested on: CAKI-1 renal
[7] = tested on: CCRF-CEM leukemia
[8] = tested on: COLO 205 colon
[9] = tested on: DU-145 prostate
[10] = tested on: EKVX NSCLC
[11] = tested on: HCC-2998 colon
[12] = tested on: HCT-116 colon
[13] = tested on: HCT-15 colon
[14] = tested on: HL-60(TB) leukemia
[15] = tested on: HOP-62 NSCLC
[16] = tested on: HOP-92 NSCLC
[17] = tested on: HS 578T breast
[18] = tested on: HT29 colon
[19] = tested on: IGROV1 ovarian
[20] = tested on: KM12 colon
[21] = tested on: LOX IMVI melanoma
[22] = tested on: M14 melanoma
[23] = tested on: MALME-3M melanoma
[24] = tested on: MCF7 breast
[25] = tested on: MDA-MB-231 breast
[26] = tested on: MDA-MB-435
[27] = tested on: MDA-MB-468 breast
[28] = tested on: NCI-H226 lung

COc1cc2oc(-c3cccc(C(=O)Nc4ccc(Cl)cc4)c3)cc(=O)c2c(OCCN)c1OC showed a GI50 [1] of 2.04 µM, a TGI [1] of 4.14 µM and a GI50 [2] of 20.7 µM. For the same compound, the TGI [2] was 40.4 µM, the GI50 [3] was 4.06 µM and the TGI [3] was 20.7 µM. It also gave a GI50 [4] of 10.6 µM, a TGI [4] of 22.4 µM and a GI50 [5] of 6.3 µM. For the same compound, the TGI [5] was 25.7 µM, the GI50 [6] was 11.2 µM and the TGI [6] was 23.6 µM. For the same compound, the GI50 [7] was 2.16 µM, the TGI [7] was 4.84 µM and the GI50 [8] was 3.03 µM. It also gave a TGI [8] of 12.6 µM, a GI50 [9] of 5.98 µM and a TGI [9] of 18.3 µM. It also gave a GI50 [10] of 5.66 µM, a TGI [10] of 18.6 µM and a GI50 [11] of 2.37 µM. The TGI [11] was 6.58 µM, the GI50 [12] was 2.39 µM and the TGI [12] was 5.84 µM. The GI50 [13] was 2.82 µM, the TGI [13] was 8.51 µM and the GI50 [14] was 2.38 µM. It also gave a TGI [14] of 5.9 µM, a GI50 [15] of 1.82 µM and a TGI [15] of 4.19 µM. For the same compound, the GI50 [16] was 2.09 µM, the TGI [16] was 16.5 µM and the GI50 [17] was 5.21 µM. It also gave a TGI [17] of 25.3 µM, a GI50 [18] of 2.28 µM and a TGI [18] of 5.62 µM. It also gave a GI50 [19] of 4.18 µM, a TGI [19] of 18.1 µM and a GI50 [20] of 6.84 µM. For the same compound, the TGI [20] was 23.9 µM, the GI50 [21] was 1.48 µM and the TGI [21] was 2.8 µM. The GI50 [22] was 2.02 µM, the TGI [22] was 4 µM and the GI50 [23] was 1.8 µM. The TGI [23] was 3.35 µM, the GI50 [24] was 1.66 µM and the TGI [24] was 3.14 µM. It also gave a GI50 [25] of 2.63 µM, a TGI [25] of 7.92 µM and a GI50 [26] of 1.82 µM. It also gave a TGI [26] of 3.65 µM, a GI50 [27] of 1.52 µM and a TGI [27] of 3.03 µM. For the same compound, the GI50 [28] was 13.4 µM and the TGI [28] was 30.3 µM.
